According to patent US8710079B2, “Quinoline compounds and their use for treating viral infection” (National Health Research Institutes, priority 2010, dated 2014):
Where two headings read alike, the source gives them in different places.

What was measured:
[1] = tested on: Influenza A/WSN/33 (H1N1) virus; assay: In vitro anti-influenza virus assay (neutralization test), cytopathic effect on MDCK cells; format: cell-based; details: 72 h, read-out: IC50 (concentration reducing virus-induced cytopathic effect by 50%)
[2] = tested on: HIV-1; assay: microbe, parasite or virus in culture; details: Human immunodeficiency virus 1, PBMC
Experimental: Equal amounts of wild-type and mutant viruses were used to infect 5×10^4 peripheral blood mononuclear cells (PBMC) in 1.5 mL medium containing DMSO or various concentrations of a test compound. A half-milliliter of the culture medium was collected from each culture at days 3, 5, and 7. Viral RNA was extracted from the collected culture supernatants and the viral titers (copies/mL) were determined by real-time PCR. The percentage of inhibition was calculated as [100−(VD/VC)]×100%, where VD and VC refer to the virus titers in the presence and absence of the test compound, respectively.

[3] = tested on: Influenza A/TW/355/97 (H1N1); assay: Anti-influenza neutralization test, various influenza virus strains; format: cell-based
[4] = tested on: Influenza A/TW/147/09 (H1N1); assay: as above; format: cell-based
[5] = tested on: Influenza A/TW/70058/09 (H1N1); assay: as above; format: cell-based
[6] = tested on: Influenza A/TW/70066/09 (H1N1); assay: as above; format: cell-based
[7] = tested on: Enterovirus 71/4643/MP4; assay: In vitro EV 71 neutralization assay, cytopathic effect on RD cells; details: Enterovirus A
Experimental: (§1) This assay measured the ability of a test compound to inhibit the cytopathic effect induced by a picornavirus (EV71, Coxsackie Virus B3, or human rhinovirus 2) on RD cells. […] More specifically, 96-well tissue culture plates were seeded with 200 μL of RD cells at a concentration of 3×10^5 cells/mL in DMEM with 10% FBS. The plates were incubated for 24-30 h at 37° C. and were used at about 90% confluency. Virus (100 TCID50) mixed with different concentrations of a test compound was added to the cells and incubated at 37° C. for 1 h. After adsorption, the infected cell plates were overlaid with 50 μL of DMEM plus 5% FBS and 2% DMSO. The plate was wrapped in Parafilm and incubated at 37° C. for 64 h. At the end of incubation, the plates were fixed by the addition of 100 μL of 0.5% glutaraldehyde for 1 h at room temperature. After the removal of glutaraldehyde, the plates were stained with 0.1% crystal violet for 15 min at room temperature. The plates were washed and dried, and the density of the well was measured at 570 nm. The concentration required for a test compound to reduce the virus-induced cytopathic effect (CPE) by 50% relative to the virus control is expressed as IC50.

[8] = tested on: Coxsackie B virus 3; assay: In vitro Coxsackie Virus B3 neutralization assay, cytopathic effect on RD cells
Experimental: as §1

[9] = tested on: Human rhinovirus 2; assay: In vitro human rhinovirus 2 neutralization assay, cytopathic effect on RD cells; details: Rhinovirus A
Experimental: as §1

[10] = Influenza A/WSN/33 (H1N1), MDCK cells, lower bound in nM, upper bound in μM
[11] = Influenza A/WSN/33 (H1N1), MDCK cells
[12] = 72 h, read-out: Inhibition (%) Day 3
[13] = 120 h, read-out: Inhibition (%) Day 5
[14] = 168 h, read-out: Inhibition (%) Day 7

With `Cc1ccccc1-n1ncc(-c2cc(C(=O)O)c3cc(Br)ccc3n2)c1C` [Compound 17] the IC50 [1, 10] was 10 to 999 nM.
Work on `Cc1ccc(C)c(-n2ncc(-c3cc(C(=O)O)c4cc(F)ccc4n3)c2C)c1` [Compound 50] yielded an IC50 [1, 11] of 1000 to 5900 nM.
`Cc1c(-c2cc(C(=O)O)c3cc(Br)ccc3n2)cnn1-c1cc(Cl)cc(Cl)c1` [Compound 57] gave an IC50 [1, 11] of 1000 to 5900 nM.
`Cc1c(-c2cc(C(=O)O)c3cc(Br)ccc3n2)cnn1-c1cccc(F)c1` [Compound 11] gave an IC50 [1, 11] of 1000 to 5900 nM.
In the case of `Cc1cccc(C)c1-n1ncc(-c2cc(C(=O)O)c3cc(Br)ccc3n2)c1C` [Compound 36], the IC50 [1, 11] is reported as 1000 to 5900 nM.
Compound `Cc1ccc(Cl)cc1-n1ncc(-c2cc(C(=O)O)c3cc(Cl)ccc3n2)c1C` [Compound 34] has an IC50 [1, 10] of 10 to 999 nM.
In the case of `Cc1nc(-c2ccccc2)sc1-c1cc(C(=O)O)c2cc(Br)ccc2n1` [Compound 46], the IC50 [1, 11] is reported as 1000 to 5900 nM.
For `Cc1ccc(C)c(-n2ncc(-c3cc(C(=O)O)c4cc(Br)cc(Br)c4n3)c2C)c1` [Compound 58], the IC50 [1, 11] was 1000 to 5900 nM.
Work on `CCc1ccccc1-n1ncc(-c2cc(C(=O)O)c3cc(Br)ccc3n2)c1C` [Compound 38] yielded an IC50 [1, 11] of 1000 to 5900 nM.
For `Cc1c(-c2cc(C(=O)O)c3cc(Br)ccc3n2)cnn1-c1c(Cl)cccc1Cl` [Compound 41], the IC50 [1, 11] was 6000 to 25000 nM.
`Cc1cc(Cl)ccc1-n1ncc(-c2cc(C(=O)O)c3cc(Br)ccc3n2)c1C` [Compound 14] showed an IC50 [1, 10] of 10 to 999 nM, an inhibition at 10 µM [2, 12] of 20% and an inhibition at 0.01 µM [2, 13] of 48%. The inhibition at 10 µM [2, 13] was 59% and the inhibition at 10 µM [2, 14] was 86%.
Work on `Cc1c(-c2cc(C(=O)O)c3cc(Br)ccc3n2)cnn1-c1c(Cl)cc(Cl)cc1Cl` [Compound 42] yielded an IC50 [1, 11] of 1000 to 5900 nM.
Compound `Cc1c(-c2cc(C(=O)O)c3cc(Br)ccc3n2)cnn1-c1ccc(C(C)C)cc1` [Compound 13] has an IC50 [1, 10] of 10 to 999 nM.
Compound `Cc1cccc(-n2ncc(-c3cc(C(=O)O)c4cc(Br)ccc4n3)c2C)c1C` [Compound 30] has an IC50 [1, 10] of 10 to 999 nM.
`Cc1cc(C)cc(-n2ncc(-c3cc(C(=O)O)c4cc(Br)ccc4n3)c2C)c1` [Compound 15] was tested, and the IC50 [1, 10] was 10 to 999 nM.
With `Cc1c(-c2cc(C(=O)O)c3cc(Br)ccc3n2)cnn1-c1ccc(Cl)c(Cl)c1` [Compound 8] the IC50 [1, 11] was 1000 to 5900 nM.
Work on `O=C(O)c1cc(-c2cc(-c3ccccc3)no2)nc2ccc(Br)cc12` [Compound 19] yielded an IC50 [1, 11] of 1000 to 5900 nM.
Work on `Cc1c(-c2cc(C(=O)O)c3cc(Br)ccc3n2)cnn1-c1ccc(C(F)(F)F)cc1` [Compound 23] yielded an IC50 [1, 11] of 1000 to 5900 nM.
`Cc1c(-c2cc(C(=O)O)c3cc(Br)ccc3n2)ccn1-c1ccccc1` [Compound 48] gave an IC50 [1, 11] of 1000 to 5900 nM.
Work on `Cc1c(-c2ccccc2)cccc1-c1cc(C(=O)O)c2cc(Br)ccc2n1` [Compound 76] yielded an IC50 [1, 11] of 1000 to 5900 nM.
`Cc1cc(-c2cc(C(=O)O)c3cc(Br)ccc3n2)nn1-c1nc2ccccc2s1` [Compound 73] showed an IC50 [1, 11] of 1000 to 5900 nM.
Work on `Cc1c(-c2cc(C(=O)O)c3cc(Br)ccc3n2)cnn1-c1ccccc1F` [Compound 24] yielded an IC50 ([1]; MDCK) of 10 to 999 nM.
For `Cn1c(-c2ccccc2)ccc1-c1cc(C(=O)O)c2cc(Br)ccc2n1` [Compound 47], the IC50 [1, 10] was 10 to 999 nM.
`NC12CC3CC(CC(C3)C1)C2` [Amantadine] showed an IC50 [3] of 12600 ± 6930 nM, an IC50 [4] of 1470 ± 603 nM and an IC50 [5] of 762 ± 280 nM. It also gave an IC50 [6] of 960 ± 317 nM, an IC50 [7] greater than 25000 nM and an IC50 [8] greater than 25000 nM. For the same compound, the IC50 [9] was greater than 25000 nM.
`Cc1c(-c2cc(C(=O)O)c3cc(Br)ccc3n2)cnn1-c1cc(F)ccc1F` [Compound 40] was tested, and the IC50 [1, 11] was 6000 to 25000 nM.
For `Cc1c(-c2cc(C(=O)O)c3cc(Br)ccc3n2)cnn1-c1ccc(F)c(F)c1` [Compound 6], the IC50 [1, 11] was 1000 to 5900 nM.
`Cc1ccc(C)c(-n2ncc(-c3cc(C(=O)O)c4cc(I)ccc4n3)c2C)c1` [Compound 60] gave an IC50 [1, 10] of 10 to 999 nM.
Work on `Cc1cc(-c2cc(C(=O)O)c3cc(Br)ccc3n2)nn1-c1ccc2ccccc2n1` [Compound 75] yielded an IC50 [1, 11] of 1000 to 5900 nM.
`Cc1c(-c2cc(C(=O)O)c3cc(Br)ccc3n2)cnn1-c1ccc(Br)cc1` [Compound 20] gave an IC50 [1, 10] of 10 to 999 nM.
For `CCCc1cccc(-n2ncc(-c3cc(C(=O)O)c4cc(Br)ccc4n3)c2C)c1` [Compound 22], the IC50 [1, 10] was 10 to 999 nM.
Work on `Cc1c(-c2cc(C(=O)O)c3cc(Br)ccc3n2)cnn1-c1ccc(Cl)cc1` [Compound 12] yielded an IC50 [1, 11] of 1000 to 5900 nM.
In the case of `Cc1cc(C(F)(F)F)cc(-n2nc(-c3cc(C(=O)O)c4cc(Br)ccc4n3)cc2C)n1` [Compound 74], the IC50 [1, 11] is reported as 1000 to 5900 nM.
Compound `Cc1c(-c2cc(C(=O)O)c3cc(Br)ccc3n2)cnn1-c1cc(Cl)ccc1Cl` [Compound 39] has an IC50 [1, 11] of 6000 to 25000 nM.
In the case of `Cc1c(-c2cc(C(=O)O)c3cc(Br)ccc3n2)cnn1-c1cccc([N+](=O)[O-])c1` [Compound 29], the IC50 [1, 11] is reported as 6000 to 25000 nM.
`O=C(O)c1cc(-c2cnn(-c3ccccc3)c2)nc2ccc(Br)cc12` [Compound 43] showed an IC50 [1, 11] of 6000 to 25000 nM.
`Cc1c(-c2cc(C(=O)O)c3cc(Br)ccc3n2)cnn1-c1cccc(Cl)c1` [Compound 25] was tested, and the IC50 ([1]; MDCK) was 10 to 999 nM.
`Cc1ccc(C)c(-n2ncc(-c3cc(C(=O)O)c4cc(Br)cc(C)c4n3)c2C)c1` [Compound 59] showed an IC50 [1, 11] of 1000 to 5900 nM.
`Cc1c(-c2cc(C(=O)O)c3cc(Br)ccc3n2)cnn1-c1ccc(F)cc1` [Compound 10] showed an IC50 [1, 10] of 10 to 999 nM.
`CC(=O)N[C@H]1[C@H]([C@H](O)[C@H](O)CO)OC(C(=O)O)=C[C@@H]1N=C(N)N` [Relenza, Zanamivir] showed an IC50 [3] of 1050 ± 458 nM, an IC50 [4] of 22500 ± 3470 nM and an IC50 [5] of 860 ± 360 nM. It also gave an IC50 [6] of 809 ± 150 nM, an IC50 [7] greater than 25000 nM and an IC50 [8] greater than 25000 nM. For the same compound, the IC50 [9] was greater than 25000 nM.
In the case of `COc1ccc(-n2ncc(-c3cc(C(=O)O)c4cc(Br)ccc4n3)c2C)cc1` [Compound 7], the IC50 [1, 11] is reported as 1000 to 5900 nM.
For `Cc1c(-c2cc(C(=O)O)c3cc(Br)ccc3n2)cnn1-c1ccc([N+](=O)[O-])cc1` [Compound 16], the IC50 [1, 11] was 1000 to 5900 nM.
For `COc1cccc(-n2ncc(-c3cc(C(=O)O)c4cc(Br)ccc4n3)c2C)c1` [Compound 18], the IC50 [1, 11] was 1000 to 5900 nM.
With `Cc1c(-c2cc(C(=O)O)c3cc(F)ccc3n2)cnn1-c1ccccc1` [Compound 3] the IC50 [1, 11] was 1000 to 5900 nM.
Work on `Cc1c(-c2cc(C(=O)O)c3cc(Br)ccc3n2)noc1-c1ccccc1` [Compound 49] yielded an IC50 [1, 11] of 1000 to 5900 nM.
`Cc1cc(C)c(-n2ncc(-c3cc(C(=O)O)c4cc(Br)ccc4n3)c2C)c(C)c1` [Compound 37] gave an IC50 [1, 11] of 1000 to 5900 nM.
`Cc1c(-c2cc(C(=O)O)c3cc(Cl)ccc3n2)cnn1-c1ccccc1` [Compound 4] gave an IC50 [1, 10] of 10 to 999 nM.
`Cc1c(-c2cc(C(=O)O)c3cc(Br)ccc3n2)cnn1-c1ccc(F)cc1F` [Compound 21] showed an IC50 [1, 11] of 1000 to 5900 nM.
`Cc1c(-c2cc(C(=O)O)c3cc(Br)ccc3n2)cnn1-c1ccc(Cl)cc1Cl` [Compound 27] was tested, and the IC50 ([1]; MDCK) was 10 to 999 nM.
For `Cc1cn([C@H]2C[C@H](N=[N+]=[N-])[C@@H](CO)O2)c(=O)[nH]c1=O` [AZT, zidovudine, reference compound], the inhibition at 0.04 µM [2, 12] was 30%, the inhibition at 0.04 µM [2, 13] was 60% and the inhibition at 0.04 µM [2, 14] was 67%.
`Cc1cccc(-n2ncc(-c3cc(C(=O)O)c4cc(Br)ccc4n3)c2C)c1` [Compound 26] showed an IC50 ([1]; MDCK) of 10 to 999 nM.
In the case of `Cc1ccc(C)c(-n2ncc(-c3cc(C(=O)O)c4cc(Cl)ccc4n3)c2C)c1` [Compound 33], the IC50 [1, 10] is reported as 10 to 999 nM.
Work on `Cc1ccc(-n2ncc(-c3cc(C(=O)O)c4cc(Br)ccc4n3)c2C)cc1` [Compound 9] yielded an IC50 [1, 10] of 10 to 999 nM.
In the case of `Cc1c(-c2cc(C(=O)O)c3cc(Br)ccc3n2)ncn1-c1ccccc1` [Compound 51], the IC50 [1, 10] is reported as 10 to 999 nM.
With `Cc1ccc(-n2ncc(-c3cc(C(=O)O)c4cc(Br)ccc4n3)c2C)c(C)c1` [Compound 5] the IC50 [1, 10] was 10 to 999 nM.
In the case of `Cc1ccc(Cl)cc1-n1ncc(-c2cc(C(=O)O)c3cc(Br)ccc3n2)c1C` [Compound 31], the IC50 [1, 10] is reported as 10 to 999 nM.
